Measurements reported in PubChem BioAssay (NCI).
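These data come from cells grown in 96-well plates and exposed to compound for 48 hours at five concentrations. GI50: concentration for 50% inhibition of growth. TGI: total growth inhibition.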

How the values were obtained:
Test in all cases: NCI tumour cell line growth inhibition, 48 h
[1] = system: A549 NSCLC
[2] = system: HCC-2998 colon
[3] = system: HOP-92 NSCLC
[4] = system: M14 melanoma
[5] = system: MALME-3M melanoma
[6] = system: SK-MEL-28 melanoma
[7] = system: SK-OV-3 ovarian
[8] = system: A498 renal
[9] = system: MCF7 breast
[10] = system: MDA-MB-231 breast

Compound	TGI [1]	TGI [2]	TGI [3]	TGI [4]	TGI [5]	TGI [6]	TGI [7]	TGI [8]	GI50 [8]	GI50 [1]	GI50 [3]	GI50 [4]	GI50 [5]	GI50 [9]	TGI [9]	GI50 [10]	TGI [10]	GI50 [6]	GI50 [7]	GI50 [2]
CC(=O)OC1CCn2nnc(COC(=O)NC(C)C)c21 (stereo not drawn)	> 100 µM	> 100 µM	> 100 µM	> 100 µM	> 100 µM	> 100 µM	> 100 µM													
COc1ccc(C(c2ccc(C(C)C)cc(=O)c2O)c2c(O)cc3oc(-c4ccccc4)cc(=O)c3c2O)cc1 (stereo not drawn)	> 100 µM	33.6 µM	3.53 µM	22.2 µM		> 100 µM	55.4 µM	51.5 µM												
O=c1c2ccc3cccc4c(=O)cc(c5ccccc15)-c2c34	> 100 µM	> 100 µM		> 100 µM	> 100 µM	> 100 µM	> 100 µM	> 100 µM												
Cc1c(C(=O)/C=C/c2ccc(Cl)cc2)[n+](=O)c2ccccc2n1[O-]	33.6 µM	24.5 µM	37.7 µM	31.5 µM	38.1 µM	32.6 µM	47.6 µM	29.2 µM												
CCCCCCCCCCCC(=O)OCC1OC(n2cc(F)c(=O)[nH]c2=O)C(N)C(OC(=O)CCCCCCCCCCC)C1O (stereo not drawn)	> 100 µM	> 100 µM	98.8 µM	> 100 µM	> 100 µM	> 100 µM	> 100 µM	> 100 µM												
CCCNCc1nc2ccc(Br)cc2c(=O)n1CCC	35 µM			27.4 µM	26.4 µM	29 µM	32.6 µM	32 µM												
Nc1cc(-c2ccccc2)ccc1O	> 100 µM		> 100 µM	> 100 µM	> 100 µM	> 100 µM	> 100 µM	> 100 µM	22.7 µM	> 100 µM	> 100 µM	> 100 µM	> 100 µM	> 100 µM	> 100 µM	7.32 µM	> 100 µM	> 100 µM	> 100 µM	
O=c1ccccc2cccc(O)c12	> 100 µM	> 100 µM	> 100 µM	> 100 µM		> 100 µM	> 100 µM	> 100 µM												
CCC[CH2][Sn]([CH2]CCC)([O]C(=O)c1cccc(F)c1)[O]C(=O)c1cccc(F)c1	9.45 µM	2.81 µM		2.88 µM	2.25 µM	2.02 µM	3.45 µM	1.98 µM	0.467 µM	2.89 µM		1.34 µM	0.907 µM					0.703 µM	1.84 µM	1.47 µM
Cc1ccc(NC(=O)/C(CC(=O)c2c[n+](=O)c3ccccc3n2O)=N\NC(=O)C[n+]2ccccc2)cc1	> 100 µM	> 100 µM		> 100 µM	> 100 µM	> 100 µM	> 100 µM	> 100 µM												
CC(=O)OC12c3ccccc3C1CCCCCC21OCCCO1 (stereo not drawn)	> 100 µM	> 100 µM		> 100 µM		> 100 µM	> 100 µM	> 100 µM												
C=CC1CC12C(=O)C1OC2(C)C2C(=O)c3c(ccc4c3ccc3ccccc34)C(=O)C12 (stereo not drawn)	> 100 µM	> 100 µM	> 100 µM	> 100 µM	> 100 µM	> 100 µM	> 100 µM			95.2 µM	34.4 µM	67.3 µM	16.8 µM	34.2 µM	> 100 µM	39.1 µM	> 100 µM	65.3 µM	> 100 µM	94.6 µM
